According to paper PMC6197077 (Frontiers in Immunology, 2018):
“And” between values parts separate entries of the source, which are not always exact repeats. Equal entries are not always repeated. “Also recorded” adds a separate entry of the source. Where two headings read alike, the source gives them in different places.

Tests used:
P14 CD8+ T cells [1] = assay type: cell-based, mice; settings: for IRF4 MFI at low peptide doses: P14 CD8+ T cells (Figure 4H)
[2] = system: P14 TCR (TCR:pMHC, D^b D227K); assay type: binding, mice; settings: for peak bond lifetime under force, CD8-null: BFP force-clamp, absence of CD8 (CD8-null pMHC), peak of force curve, >1,000 bond lifetimes per curve; for bond lifetime by BFP for the TCR alone: restated range in Discussion; for bond lifetime at ~10 pN, CD8-null: ~10 pN of force, CD8-null (Figures 3D,E)
[3] = system: P14 TCR with CD8 coreceptor (TCR:pMHC:CD8); assay type: binding, mice; settings: for peak bond lifetime under force, CD8-intact: BFP force-clamp, CD8-intact pMHC, peak of force curve, >1,000 bond lifetimes per curve; for bond lifetime at ~10 pN, CD8-intact: ~10 pN of force, CD8-intact (Figures 3F,G)
polyclonal CD8+ T cells [4] = assay type: cell-based, mice; settings: for Nur77 MFI: polyclonal CD8 T cells, 1 uM (Figure 6F)
P14 TCR = settings: cited from earlier work; for Kd: SPR
[5] = system: TCR of naïve P14 CD8+ T cells (TCR:pMHC, H2D^b); assay type: binding, mice; settings: for mean population 2D affinity (AcKa): naïve CD8+ P14 splenocytes, 50 contact cycles per cell, 3 individual experiments; for 2D affinity, result in words: naïve P14 CD8+ T cells
P14 CD8+ T cells [6] = assay type: cell-based, mice; settings: for ligand potency: at equivalent peptide doses, not factoring in peptide loading; for %Nur77+: representative of 3 experiments, n = 3-4 mice; for signal strength as measured by Nur77 upregulation: P14 CD8 T cells re-stimulated ex vivo
P14 CD8+ T cells [7] = assay type: cell-based, mice
pMHC (T-2D^b cell line) = settings: competition on T-2D^b cell line; versus 9-mer 41C; ref [8] Gairin et al.; cited from earlier work
Excerpt: (§1) The question is to what extent loading of MHC affects the T cell response and their biology.

[8] = system: TCR and CD8 of naïve P14 CD8+ T cells (TCR:pMHC:CD8, D^b); assay type: binding, mice; settings: for normalized adhesion bonds, mean bond number (-ln(1-Pa(s))/mpMHC): P14 CD8+ T cells, wild type (CD8-intact) pMHC monomers, 3 individual experiments; for total bond number hierarchy: single P14 T cell probed against all three pMHC (Figure 2B)
polyclonal CD8+ T cells [9] = assay type: cell-based, mice
[10] = system: T cells interacting with dendritic cells; settings: peptide pulsed DCs, lymph node; versus 41C; ref Henrickson et al. [36]; cited from earlier work
Excerpt: as §1

MHC class I (D^b) = settings: terminal cysteine; ref [27], [34]-[36]; cited from earlier work
[11] = terminal cysteine; ref [27], [34]-[36]; cited from earlier work
[12] = Boulter et al., ref [52], read-out: 3D affinity (as restated in Discussion)
[13] = P14 CD8+ T cells, D8 p.i., range of peptide doses

Sequence | IRF4 MFI at low peptide doses (P14 CD8+ T cells [1]) | peak bond lifetime under force, CD8-null [2] | peak bond lifetime under force, CD8-intact [3] | Nur77 MFI (polyclonal CD8+ T cells [4]) | Kd (P14 TCR; [12]) [µM] | mean population 2D affinity (AcKa) [5] [μm^4] | 2D affinity, result in words [5] | ligand potency (P14 CD8+ T cells [6]) [M > 41C > 41CGI] | normalized adhesion bonds, mean bond number (-ln(1-Pa(s))/mpMHC) [8] [μm^2] | total bond number hierarchy [8] [M> 41C> 41CGI] | bond lifetime by BFP for the TCR alone [2] [s] | bond lifetime at ~10 pN, CD8-null [2] | bond lifetime at ~10 pN, CD8-intact [3] | bond lifetime by SPR (P14 TCR; ref [51]) | %Nur77+ (P14 CD8+ T cells [6]; [13]) | signal strength as measured by Nur77 upregulation (P14 CD8+ T cells [6]) | also measured
KAVYNFATCGI [41CGI] | difference in IRF4 MFI | ~ 0.1 s | ~ 1.5 s | not significantly different | 3.5 | 1.55E-04 | lowest 2D affinity of the three, it still had a relatively high 2D affinity | 41 | 2.93E-02 | 41 | – | – | – | – | – | – | IRF4 MFI at highest peptide dose (P14 CD8+ T cells [1]): did not observe a difference between 41C and 41CGI; fold increase of peak bond lifetime by CD8 contribution ([3]; CD8-intact versus CD8-null pMHC): 15 fold and ~ 15 fold; cytokine production (P14 CD8+ T cells [7]): significantly diminished cytokine production; efficiency at competing for pMHC (pMHC (T-2D^b cell line)): six times more efficient
KAVYNFATM [41M] | difference in IRF4 MFI | ~ 0.8 s | ~ 3.0 s | – | – | 1.04E-03 | highest 2D affinity | 41 | 6.40E-01 | 41 | 0.8 to 0.9 | no significant difference in bond lifetime between 41M and 41C | no significant difference in bond lifetime between 41M and 41C | ~ 0.5 s | higher percentage of CD8+ T cells re-stimulated with 41M expressed Nur77 | stronger signal than 41C; also recorded: significantly stronger signals than 41CGI stimulated cells | frequency of Nur77 expression (polyclonal CD8+ T cells [4]): increased frequencies of Nur77 expression; Kd (P14 TCR; ref [50], read-out: KD (3D affinity, SPR)): 17 µM; Kd (P14 TCR; ref [51], read-out: KD (3D affinity, SPR)): 9.1 µM; Kd (P14 TCR; ref [52], read-out: KD (3D affinity, SPR)): 2.3 µM; IRF4 expression (polyclonal CD8+ T cells [9]): only a slight difference between 41M and 41C; peptide dose at which Nur77 MFI peaks (P14 CD8+ T cells [6]; P14 CD8+ T cells re-stimulated ex vivo): 0.31 µM; Nur77 MFI (P14 CD8+ T cells [6]; [13]): higher MFI (peaking at 0.31 uM) than 41C and dramatically more so than 41CGI; double producers of IFNγ and TNF (P14 CD8+ T cells [7]): significantly higher frequency; sensitivity to antigen (P14 CD8+ T cells [7]): same sensitivity to antigen; triple producers of IFNγ, TNF and IL-2 (P14 CD8+ T cells [7]): significantly higher frequency; IFNγ production (P14 CD8+ T cells [7]; P14 cells, range of peptide doses, 6 h ex vivo (Figures 5A,B)): produced the most IFNγ; agonist classification (P14 CD8+ T cells [7]; by 2D affinity measures and functionality): super agonist peptide variant; transition to phase two T cell:DC contacts [10]: transitioned more quickly to phase two
KAVYNFATC [41C] | difference in IRF4 MFI | ~ 0.9 s | ~ 1.9 s | not significantly different | 2.3 | 6.62E-04 | – | 41 | 1.01E-01 | 41 | 0.8 to 0.9 | longer bond lifetime than 41M and dramatically more so than 41CGI; also recorded: no significant difference in bond lifetime between 41M and 41C | no significant difference in bond lifetime between 41M and 41C | ~ 0.5 s | significantly higher frequencies of Nur77+ CD8+ T cells than those stimulated with 41CGI | significantly stronger signals than 41CGI stimulated cells | IRF4 MFI at highest peptide dose (P14 CD8+ T cells [1]; 1 uM peptide, P14 CD8+ T cells, 41C versus 41CGI): did not observe a difference between 41C and 41CGI; stability in the MHC (MHC class I (D^b)): decreased stability in the MHC; peptide dimer formation [11]: form peptide dimers; IRF4 expression (polyclonal CD8+ T cells [9]; polyclonal CD8 T cells, 1 uM, 41M versus 41C (Figures 6E-I)): only a slight difference between 41M and 41C; sensitivity to antigen (P14 CD8+ T cells [7]; 41M versus 41C, in our experiments): same sensitivity to antigen; functional responses read out by Nur77, IFNγ and IL-2 (P14 CD8+ T cells [7]; Discussion): larger responses
